In PubChem BioAssay (NCI):
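Cells were grown in 96-well plates and exposed to each compound for 48 hours at five concentrations; endpoints were interpolated linearly between bracketing concentrations, or set to the highest concentration if not reached. At the GI50, growth is halved. TGI: concentration producing complete growth inhibition.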

Tests used:
Assay in all cases: inhibition of tumour cell growth, NCI panel, 48 h
SF-268 CNS = tested on: SF-268 CNS
MDA-MB-231 breast = tested on: MDA-MB-231 breast
IGROV1 ovarian = tested on: IGROV1 ovarian
SF-295 CNS = tested on: SF-295 CNS
BT-549 breast = tested on: BT-549 breast
UO-31 renal = tested on: UO-31 renal
OVCAR-8 ovarian = tested on: OVCAR-8 ovarian
SF-539 CNS = tested on: SF-539 CNS
SW-620 colon = tested on: SW-620 colon
UACC-257 melanoma = tested on: UACC-257 melanoma
K-562 leukemia = tested on: K-562 leukemia
RXF 393 renal = tested on: RXF 393 renal
SNB-75 CNS = tested on: SNB-75 CNS
T-47D breast = tested on: T-47D breast
NCI-H460 lung = tested on: NCI-H460 lung
NCI-H522 lung = tested on: NCI-H522 lung
SN12C renal = tested on: SN12C renal
NCI-H23 lung = tested on: NCI-H23 lung
NCI-H226 lung = tested on: NCI-H226 lung
MDA-MB-435 = tested on: MDA-MB-435
OVCAR-4 ovarian = tested on: OVCAR-4 ovarian
KM12 colon = tested on: KM12 colon
COLO 205 colon = tested on: COLO 205 colon
HCT-15 colon = tested on: HCT-15 colon
M14 melanoma = tested on: M14 melanoma
OVCAR-3 ovarian = tested on: OVCAR-3 ovarian
A498 renal = tested on: A498 renal
LOX IMVI melanoma = tested on: LOX IMVI melanoma
UACC-62 melanoma = tested on: UACC-62 melanoma

**Q.** Which results are given for `O=[N+]([O-])c1ccc2c(c1)C(=NO)c1cc([N+](=O)[O-])ccc1-2`?
**A.** GI50 (SF-268 CNS): 33.6 µM; TGI (SF-268 CNS): > 100 µM; GI50 (MDA-MB-231 breast): 36.3 µM; TGI (MDA-MB-231 breast): > 100 µM; GI50 (IGROV1 ovarian): 2520 nM; TGI (IGROV1 ovarian): 7.6 µM; GI50 (SF-295 CNS): 13.5 µM; TGI (SF-295 CNS): > 100 µM; GI50 (BT-549 breast): 50.8 µM; TGI (BT-549 breast): > 100 µM; GI50 (UO-31 renal): 3.12 µM; TGI (UO-31 renal): 23.5 µM; GI50 (OVCAR-8 ovarian): 74.7 µM; TGI (OVCAR-8 ovarian): > 100 µM; GI50 (SF-539 CNS): 37.7 µM; TGI (SF-539 CNS): > 100 µM; GI50 (SW-620 colon): 12.4 µM; TGI (SW-620 colon): > 100 µM; GI50 (UACC-257 melanoma): 62.6 µM; TGI (UACC-257 melanoma): > 100 µM; GI50 (K-562 leukemia): 11.7 µM; TGI (K-562 leukemia): > 100 µM; GI50 (RXF 393 renal): > 100 µM; TGI (RXF 393 renal): > 100 µM; GI50 (SNB-75 CNS): 7.18 µM; TGI (SNB-75 CNS): 75.8 µM; GI50 (T-47D breast): 79 µM; TGI (T-47D breast): > 100 µM; GI50 (NCI-H460 lung): 4.82 µM; TGI (NCI-H460 lung): > 100 µM; GI50 (NCI-H522 lung): 1620 nM; TGI (NCI-H522 lung): 11 µM; GI50 (SN12C renal): 20.5 µM; TGI (SN12C renal): > 100 µM; GI50 (NCI-H23 lung): 25.3 µM; TGI (NCI-H23 lung): > 100 µM; GI50 (NCI-H226 lung): 10.9 µM; TGI (NCI-H226 lung): 29.1 µM; GI50 (MDA-MB-435): 22.5 µM; TGI (MDA-MB-435): > 100 µM; GI50 (OVCAR-4 ovarian): 12.7 µM; TGI (OVCAR-4 ovarian): > 100 µM; GI50 (KM12 colon): 18.6 µM; TGI (KM12 colon): > 100 µM; GI50 (COLO 205 colon): 39.5 µM; TGI (COLO 205 colon): > 100 µM; GI50 (HCT-15 colon): 8.92 µM; TGI (HCT-15 colon): > 100 µM; GI50 (M14 melanoma): 21.5 µM; TGI (M14 melanoma): > 100 µM; GI50 (OVCAR-3 ovarian): 68.4 µM; TGI (OVCAR-3 ovarian): > 100 µM; GI50 (A498 renal): 54 µM; TGI (A498 renal): > 100 µM; GI50 (LOX IMVI melanoma): 13.8 µM; TGI (LOX IMVI melanoma): > 100 µM; GI50 (UACC-62 melanoma): 11.5 µM; TGI (UACC-62 melanoma): > 100 µM
